Measured values: the NIST ThermoML archive (doi:10.1016/j.fluid.2016.06.054)

Assay: molar heat capacity at constant pressure
Conditions: Liquid, Flow calorimetry

CC(=O)[O-].CCn1cc[n+](C)c1 [1-ethyl-3-methylimidazolium acetate]
Conditions | molar heat capacity at constant pressure [J/K/mol]
303.15 K, 100 kPa | 325.25
303.17 K, 4020 kPa | 324.22
303.21 K, 8050 kPa | 322.31
303.25 K, 12080 kPa | 321.03
303.27 K, 16030 kPa | 319.45
313.25 K, 100 kPa | 329.51
313.37 K, 4110 kPa | 327.89
313.42 K, 8060 kPa | 327.03
313.45 K, 12060 kPa | 326.25
313.49 K, 16090 kPa | 325.87
323.16 K, 100 kPa | 332.22
323.22 K, 4040 kPa | 330.61
323.28 K, 8020 kPa | 329.03
323.31 K, 12070 kPa | 327.19
323.34 K, 16130 kPa | 326.51
333.42 K, 100 kPa | 337.87
333.48 K, 4080 kPa | 336.14
333.52 K, 8030 kPa | 334.67
333.59 K, 12010 kPa | 333.16
333.61 K, 16090 kPa | 331.41
343.76 K, 100 kPa | 341.44
343.82 K, 4020 kPa | 340.21
343.85 K, 8030 kPa | 338.53
343.92 K, 12050 kPa | 337.42
343.98 K, 16050 kPa | 336.01
354.29 K, 100 kPa | 345.18
354.33 K, 4060 kPa | 343.89
354.38 K, 8020 kPa | 342.02
354.46 K, 12080 kPa | 340.87
354.52 K, 16090 kPa | 339.03
363.65 K, 100 kPa | 348.36
363.67 K, 4050 kPa | 346.97
363.72 K, 8060 kPa | 345.19
363.78 K, 12070 kPa | 344.06
363.82 K, 16030 kPa | 342.91
374.02 K, 100 kPa | 353.57
374.09 K, 4070 kPa | 352.06
374.11 K, 8010 kPa | 350.13
374.15 K, 12150 kPa | 348.47
374.18 K, 16110 kPa | 347.01
383.41 K, 100 kPa | 357.23
383.46 K, 4080 kPa | 355.56
383.51 K, 8040 kPa | 354.44
383.53 K, 12090 kPa | 353.71
383.55 K, 16050 kPa | 352.62
393.22 K, 100 kPa | 362.22
393.26 K, 4030 kPa | 361.14
393.31 K, 8070 kPa | 359.92
393.33 K, 12140 kPa | 358.14
393.35 K, 16090 kPa | 356.53

CC(=O)[O-].CCCCCCn1cc[n+](C)c1 [3-hexyl-1-methylimidazolium acetate]
Conditions | molar heat capacity at constant pressure [J/K/mol]
308.3 K, 100 kPa | 446.98
308.6 K, 3940 kPa | 445.51
308.7 K, 7930 kPa | 444.39
308.7 K, 11720 kPa | 442.98
308.8 K, 16020 kPa | 442.23
317.5 K, 100 kPa | 451.85
317.5 K, 4020 kPa | 450.18
317.6 K, 8080 kPa | 449.27
317.8 K, 12320 kPa | 448.43
317.9 K, 16210 kPa | 447.35
327.4 K, 100 kPa | 455.72
327.5 K, 4030 kPa | 454.06
327.7 K, 8190 kPa | 452.63
327.8 K, 12480 kPa | 451.08
327.8 K, 16220 kPa | 450.18
337.2 K, 100 kPa | 460.35
337.3 K, 4120 kPa | 458.97
337.7 K, 8030 kPa | 457.41
337.8 K, 12180 kPa | 456.32
338 K, 16110 kPa | 454.87
345.9 K, 100 kPa | 466.57
346.2 K, 4120 kPa | 465.32
346.3 K, 8170 kPa | 463.82
346.5 K, 12410 kPa | 462.14
346.8 K, 16130 kPa | 460.75
355.3 K, 100 kPa | 472.17
355.6 K, 4120 kPa | 470.85
355.7 K, 8010 kPa | 469.29
355.9 K, 12430 kPa | 468.34
356.1 K, 16130 kPa | 466.81
365 K, 7990 kPa | 476.86
365.1 K, 12180 kPa | 475.05
365.4 K, 16100 kPa | 473.57
365.7 K, 100 kPa | 479.8
365.8 K, 4110 kPa | 478.25
374 K, 100 kPa | 485.51
374.2 K, 4020 kPa | 483.86
374.4 K, 8100 kPa | 482.22
374.7 K, 12380 kPa | 480.71
375 K, 16130 kPa | 479.24
383.9 K, 100 kPa | 491.39
384.1 K, 4100 kPa | 490.53
384.3 K, 7960 kPa | 489.08
384.4 K, 12530 kPa | 487.97
384.5 K, 16010 kPa | 486.3
394.9 K, 100 kPa | 496.24
395.1 K, 4070 kPa | 494.51
395.1 K, 8360 kPa | 493.11
395.2 K, 12770 kPa | 491.91
395.4 K, 16400 kPa | 490.48
